Measurements from paper PMC10539361, “Allosteric modulation of the fish taste receptor type 1 (T1R) family by the extracellular chloride ion” (Scientific Reports, 2023).

Target: T1, mfT1R2a/mfT1R3 (Oryzias latipes, UniProt Q2MHK2+Q2MHK5)
T1 sequence (Q2MHK5 20-819): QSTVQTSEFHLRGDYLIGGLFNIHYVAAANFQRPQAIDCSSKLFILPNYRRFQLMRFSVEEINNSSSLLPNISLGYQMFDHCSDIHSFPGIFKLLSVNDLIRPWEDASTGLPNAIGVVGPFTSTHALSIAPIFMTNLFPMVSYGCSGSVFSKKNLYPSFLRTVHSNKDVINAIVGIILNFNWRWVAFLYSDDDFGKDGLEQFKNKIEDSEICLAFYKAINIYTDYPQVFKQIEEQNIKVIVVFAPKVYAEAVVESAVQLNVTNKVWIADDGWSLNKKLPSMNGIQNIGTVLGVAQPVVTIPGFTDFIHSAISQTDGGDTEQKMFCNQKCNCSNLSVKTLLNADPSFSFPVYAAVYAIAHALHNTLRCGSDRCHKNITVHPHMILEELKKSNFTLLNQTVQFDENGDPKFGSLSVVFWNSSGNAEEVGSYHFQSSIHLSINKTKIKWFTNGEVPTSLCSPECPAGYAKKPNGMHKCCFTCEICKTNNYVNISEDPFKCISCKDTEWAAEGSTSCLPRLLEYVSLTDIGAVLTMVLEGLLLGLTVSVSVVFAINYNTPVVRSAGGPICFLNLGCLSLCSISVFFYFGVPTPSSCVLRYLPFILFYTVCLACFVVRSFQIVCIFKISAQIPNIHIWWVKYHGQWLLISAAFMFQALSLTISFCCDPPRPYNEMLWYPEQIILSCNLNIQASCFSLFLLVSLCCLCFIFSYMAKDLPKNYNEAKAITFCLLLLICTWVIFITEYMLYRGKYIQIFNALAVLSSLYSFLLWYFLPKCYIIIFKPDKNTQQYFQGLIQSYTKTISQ
T1 sequence (Q2MHK2 20-853): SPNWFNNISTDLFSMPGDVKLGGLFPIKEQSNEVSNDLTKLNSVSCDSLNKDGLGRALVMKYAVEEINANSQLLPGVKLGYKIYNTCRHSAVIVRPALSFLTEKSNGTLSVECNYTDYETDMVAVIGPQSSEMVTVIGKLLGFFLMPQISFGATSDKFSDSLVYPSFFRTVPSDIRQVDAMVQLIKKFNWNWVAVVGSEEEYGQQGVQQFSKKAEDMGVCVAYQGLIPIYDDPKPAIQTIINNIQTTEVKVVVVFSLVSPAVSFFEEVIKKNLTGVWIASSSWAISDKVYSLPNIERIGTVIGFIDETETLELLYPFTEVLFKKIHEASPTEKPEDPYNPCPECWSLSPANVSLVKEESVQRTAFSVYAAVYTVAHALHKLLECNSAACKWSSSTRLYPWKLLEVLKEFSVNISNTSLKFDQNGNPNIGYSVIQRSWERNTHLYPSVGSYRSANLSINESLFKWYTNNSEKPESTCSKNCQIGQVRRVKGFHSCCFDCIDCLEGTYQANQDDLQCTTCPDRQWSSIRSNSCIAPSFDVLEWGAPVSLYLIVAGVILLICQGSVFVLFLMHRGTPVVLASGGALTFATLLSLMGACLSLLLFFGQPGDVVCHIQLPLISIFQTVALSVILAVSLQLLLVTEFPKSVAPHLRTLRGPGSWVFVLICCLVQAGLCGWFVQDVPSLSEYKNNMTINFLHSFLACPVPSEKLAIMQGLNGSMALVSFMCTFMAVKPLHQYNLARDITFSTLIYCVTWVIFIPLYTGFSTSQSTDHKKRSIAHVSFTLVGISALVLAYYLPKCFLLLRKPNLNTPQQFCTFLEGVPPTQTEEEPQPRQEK
Assay: Ca2+ mobilization dose-response assay, stable cells expressing mfT1R2a/mfT1R3 with G16gust44
Experimental: The buffers with lower Cl^− were prepared by progressively replacing NaCl, KCl, CaCl2 and MgCl2 in the buffer with gluconate equivalents[20]. The pH was adjusted to 7.4 with NaOH. Ligands were diluted with the assay buffers at the desired concentrations.
Measurements of the responses of the cells by cell-based assay based on the intracellular Ca^2+ mobilization were carried out as described previously with some modifications[20],[34],[46],[47]. […] The cells were seeded in 96-well plates (clear-bottomed CellBIND surface plate, Corning, Glendale, AZ, USA) coated with ε-poly-L-lysine (Cosmo Bio, Tokyo, Japan) at approximately 70,000 cells per well. After 20 h, the medium was removed and replaced with high Cl^− buffer. After 3 h 30 min incubation at 27 °C, cells were loaded with 5 µM calcium-indicator dye Fluo-8 AM (AAT Bioquest, Sunnyvale, CA, USA) diluted in high Cl^− buffer. After incubation for 30 min at 27 °C, the cells were washed with buffers containing appropriate concentrations of Cl^−. The cellular assay was initiated after 3–5 min of resting and was completed within 5 min. The measurements were made using FlexStation 3 (Molecular Devices, Sunnyvale, CA, USA) at 27 °C. Fluorescence changes (i.e., excitation at 485 nm and emission at 525 nm with a cutoff at 515 nm) were monitored at 2 s intervals. A 100-µL aliquot of assay buffer supplemented with 2 × ligands was added at 20 s, and scanning was continued for an additional 40 s. The response of each well was determined as ∆RFU (delta relative fluorescent units), which was calculated as (maximum fluorescent value)—(minimum fluorescent value). […] Such normalized data from more than three independent experiments are reported as the mean ± standard error of the mean (SEM). Dose‒response fitting curves were calculated by Prism 9 (GraphPad Software, San Diego, CA) using nonlinear regression (log(agonist) vs. response—variable slope), based on the integrated data from the several independent experiments.

Structure (SMILES): C[C@H](N)C(=O)O [L-Ala, L-alanine]
- EC50 in 10 mM Cl- buffer relative to high Cl- buffer (10 mM vs 141.4 mM Cl- buffer): ~7 times higher

Structure (SMILES): [Cl-].[Na+] [NaCl]
- [Cl-]o at which sensitivity is clearly reduced (agonist L-Gln, buffers with 10-141.4 mM Cl-): below 80 mM
- [Cl-]o required for saturation of the sensitivity (sensitivity to L-Gln, Fig. 2A,D): 40 to 80 mM
